From ChEMBL document CHEMBL5352388 (Eur J Med Chem, 2022)
Calls of active or inactive are those of the source. The rule behind the calls is not given here.

Columns and labels:
CYP2D6 = CYP2D6 (Homo sapiens, UniProt P10635); test: Inhibition of CYP2D6 (unknown origin) at 10 uM incubated for 20 mins in presence of NADPH by LC/MS/MS analysis relative to control; format: ADME
A549 [1] = test: Antitumor activity against human A549 cells xenografted in BALB/c mouse assessed as chromatin condensation at 20 mg/kg,ip administrated for 15 days; format: functional, organism-based; details: time 15.0 day
MCF7 = test: cells; details: Homo sapiens, MCF7, 72 h
Description: Antiproliferative activity against human MCF7 cells assessed as inhibition of cell growth incubated for 72 hrs by CCK-8 assay

[2] = Half life in Sprague-Dawley rat at 3 mg/kg,iv by LC-MS/MS analysis; format: ADME, organism-based; details: in vivo
[3] = biological target: T1, Lysine-specific histone demethylase 1A (Homo sapiens, UniProt O60341); test: Inhibition of LSD1 in human A549 cells assessed as increase in H3K9me1 protein level at 1 to 4 uM incubated for 72 hrs by Western blotting assay; format: cell-based; details: dose 1-4 µM
[4] = biological target: T1, Lysine-specific histone demethylase 1A; test: Inhibition of LSD1 in human A549 cells assessed as increase in H3K4me1 protein level at 1 to 4 uM incubated for 72 hrs by Western blotting assay; format: cell-based; details: dose 1-4 µM
MGC-803 = test: cells; details: Homo sapiens, MGC-803, 72 h
Description: Antiproliferative activity against human MGC-803 cells assessed as inhibition of cell growth incubated for 72 hrs by CCK-8 assay

[5] = AUC (0-t) in Sprague-Dawley rat at 10 mg/kg,po by LC-MS/MS analysis; format: ADME, organism-based; set-up: dose 10 mg/kg, route po; details: in vivo
A549 [6] = test: cells; details: Homo sapiens, A549, 72 h
Description: Antiproliferative activity against human A549 cells assessed as inhibition of cell growth incubated for 72 hrs by CCK-8 assay

[7] = Oral bioavailability in Sprague-Dawley rat at 10 mg/kg by LC-MS/MS analysis; format: ADME, organism-based; details: in vivo
[8] = Half life in Sprague-Dawley rat at 10 mg/kg,po by LC-MS/MS analysis; format: ADME, organism-based; details: in vivo
A549 [9] = test: Antitumor activity against human A549 cells xenografted in BALB/c mouse assessed as decrease in tumor cell density at 10 mg/kg,ip administrated for 15 days; format: functional, organism-based; details: time 15.0 day
A549 [10] = test: Antiproliferative activity against human A549 cells assessed as reduction of Edu positive cells at 2 uM incubated for 48 hrs by EdU incorporation based laser scanning microscopic analysis; format: functional, cell-based
[11] = biological target: T2, Amine oxidase [flavin-containing] A (Homo sapiens, UniProt P21397)
T2 sequence (P21397 whole entry): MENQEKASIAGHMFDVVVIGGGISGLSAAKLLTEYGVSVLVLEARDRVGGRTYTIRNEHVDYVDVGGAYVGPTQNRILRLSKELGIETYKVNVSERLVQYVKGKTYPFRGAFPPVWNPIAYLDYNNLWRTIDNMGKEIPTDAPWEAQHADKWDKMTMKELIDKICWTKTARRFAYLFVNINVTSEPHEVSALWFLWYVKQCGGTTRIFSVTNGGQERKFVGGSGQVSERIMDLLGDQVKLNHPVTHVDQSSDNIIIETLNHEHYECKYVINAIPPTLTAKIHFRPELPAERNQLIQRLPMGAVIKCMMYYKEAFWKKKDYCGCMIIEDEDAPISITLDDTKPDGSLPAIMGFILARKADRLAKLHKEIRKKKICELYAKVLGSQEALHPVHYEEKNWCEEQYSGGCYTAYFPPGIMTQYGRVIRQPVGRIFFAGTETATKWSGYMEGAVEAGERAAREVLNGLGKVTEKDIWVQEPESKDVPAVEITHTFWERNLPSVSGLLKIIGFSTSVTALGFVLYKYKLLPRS
Description: Inhibition of recombinant MAO-A (unknown origin) incubated for 60 mins by luminescence based flow cytometry

A549 [12] = test: Induction of apoptosis in human A549 cells assessed as downregulation of AKT phosphorylation incubated for 72 hrs by Western blotting assay; format: functional, cell-based
[13] = Volume of distribution in steady state in Sprague-Dawley rat at 3 mg/kg,iv by LC-MS/MS analysis; format: ADME, organism-based; details: in vivo, read-out: Vdss
[14] = Toxicity in BALB/c mouse xenografted with human A549 cells assessed as change in body weight at 10 mg/kg,ip administrated for 15 days; format: organism-based; details: in vivo, 360 h, time 15 day
CYP3A4 = CYP3A4 (Homo sapiens, UniProt P08684); test: Inhibition of CYP3A4 (unknown origin) at 10 uM incubated for 20 mins in presence of NADPH by LC/MS/MS analysis relative to control; format: ADME
A549 [15] = test: Antitumor activity against human A549 cells xenografted in BALB/c mouse assessed as decrease in tumor cell density at 20 mg/kg,ip administrated for 15 days; format: functional, organism-based; details: time 15.0 day
[16] = biological target: T1, Lysine-specific histone demethylase 1A; test: Binding affinity to LSD1 in human A549 cells assessed as increase in thermal stability at 10 uM incubated for 1 hr by cellular thermal shift assay; format: cell-based
A549 [17] = test: Antitumor activity against human A549 cells xenografted in BALB/c mouse assessed as reduction in tumor growth at 20 mg/kg,ip administrated for 15 days; format: functional, organism-based; details: time 15.0 day
A549 [18] = test: Induction of apoptosis in human A549 cells assessed as upregulation of Bax at 1 to 4 uM incubated for 72 hrs by Western blotting assay; format: functional, cell-based; details: dose 1-4 µM
[19] = Toxicity in BALB/c mouse xenografted with human A549 cells assessed as change in body weight at 20 mg/kg,ip administrated for 15 days; format: organism-based; details: in vivo, 360 h, time 15 day
[20] = biological target: T1, Lysine-specific histone demethylase 1A; test: Inhibition of LSD1 in human A549 cells assessed as increase in H3K9me2 protein level at 1 to 4 uM incubated for 72 hrs by Western blotting assay; format: cell-based; details: dose 1-4 µM
[21] = Intrinsic clearance in human liver measured upto 60 mins in presence of NADPH by LC/MS/MS analysis; format: ADME, tissue-based; details: read-out: CLH
[22] = AUC (0-infinity) in Sprague-Dawley rat at 10 mg/kg,po by LC-MS/MS analysis; format: ADME, organism-based; set-up: dose 10 mg/kg, route po; details: in vivo
A549 [23] = test: Antitumor activity against human A549 cells xenografted in BALB/c mouse assessed as chromatin condensation at 10 mg/kg,ip administrated for 15 days; format: functional, organism-based; details: time 15.0 day

Sequence of CYP3A4 (P08684 whole entry): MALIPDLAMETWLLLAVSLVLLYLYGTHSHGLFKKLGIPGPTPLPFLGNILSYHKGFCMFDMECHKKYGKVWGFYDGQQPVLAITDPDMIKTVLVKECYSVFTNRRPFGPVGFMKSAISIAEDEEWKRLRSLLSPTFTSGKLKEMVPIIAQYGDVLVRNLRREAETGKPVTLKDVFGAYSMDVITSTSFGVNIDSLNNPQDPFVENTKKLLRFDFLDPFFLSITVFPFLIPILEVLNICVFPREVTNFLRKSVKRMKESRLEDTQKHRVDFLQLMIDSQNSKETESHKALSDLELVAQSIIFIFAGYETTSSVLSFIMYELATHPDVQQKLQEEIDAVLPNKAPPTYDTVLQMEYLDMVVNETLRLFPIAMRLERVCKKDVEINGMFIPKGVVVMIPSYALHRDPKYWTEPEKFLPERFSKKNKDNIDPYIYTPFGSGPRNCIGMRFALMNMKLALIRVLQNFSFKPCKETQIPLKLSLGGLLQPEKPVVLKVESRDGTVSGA
Sequence of CYP2D6 (P10635 whole entry): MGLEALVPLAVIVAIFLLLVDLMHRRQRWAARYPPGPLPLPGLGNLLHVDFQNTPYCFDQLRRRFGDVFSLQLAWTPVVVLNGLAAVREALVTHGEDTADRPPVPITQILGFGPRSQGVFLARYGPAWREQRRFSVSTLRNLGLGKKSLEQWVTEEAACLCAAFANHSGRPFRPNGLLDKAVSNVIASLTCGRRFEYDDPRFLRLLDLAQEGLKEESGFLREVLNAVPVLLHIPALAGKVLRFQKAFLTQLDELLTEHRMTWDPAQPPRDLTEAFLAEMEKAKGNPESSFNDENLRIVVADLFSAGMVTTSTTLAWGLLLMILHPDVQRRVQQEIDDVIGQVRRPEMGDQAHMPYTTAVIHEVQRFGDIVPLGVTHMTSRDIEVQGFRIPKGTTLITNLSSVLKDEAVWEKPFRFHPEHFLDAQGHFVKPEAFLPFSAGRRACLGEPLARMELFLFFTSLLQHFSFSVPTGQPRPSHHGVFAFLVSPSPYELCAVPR

In the case of Cc1ccc(-c2cc3c(cc2-c2ccc(C#N)cc2)c(C(=O)N2CCC(N)CC2)cn3S(=O)(=O)c2ccc(F)cc2)cc1, the inhibition at 20 min, 10 µM (CYP2D6) is reported as 2.9%, the Activity (A549 [1]) is reported as “Active” and the IC50 (MCF7) is reported as 3.4 µM. For the same compound, the half-life [2] was 8.78 h, the inhibition [3] was “Dose-Dependent Effect” and the inhibition [4] was “Dose-Dependent Effect”. The IC50 (MGC-803) was 5.8 µM, the AUC(0-t) [5] was 329 ng·h/mL and the IC50 (A549 [6]) was 0.74 µM. The bioavailability [7] was 7.49%, the half-life [8] was 6.27 h and the Activity (A549 [9]) was “Active”. For the same compound, the Activity (A549 [10]) was “Active”, the IC50 [11] was 2.04 µM and the Activity (A549 [12]) was “Active”. For the same compound, the Vd [13] was 17.4 L/kg, the Activity [14] was “Non-Toxic” and the inhibition at 20 min, 10 µM (CYP3A4) was 56.8%. For the same compound, the Activity (A549 [15]) was “Active”, the Activity [16] was “Active” and the Activity (A549 [17]) was “Active”. For the same compound, the Activity (A549 [18]) was “Dose-Dependent Effect”, the Activity [19] was “Non-Toxic” and the inhibition [20] was “Dose-Dependent Effect”. The CLint scaled [21] was 8.6 mL/min/kg, the AUC(0-inf) [22] was 362 ng·h/mL and the Activity (A549 [23]) was “Active”.
